Test results reported in publication PMC12690121 (Nature Communications, 2025).

T1: ArnC (Salmonella enterica, UniProt O52324)
T1 sequence (O52324 1-327): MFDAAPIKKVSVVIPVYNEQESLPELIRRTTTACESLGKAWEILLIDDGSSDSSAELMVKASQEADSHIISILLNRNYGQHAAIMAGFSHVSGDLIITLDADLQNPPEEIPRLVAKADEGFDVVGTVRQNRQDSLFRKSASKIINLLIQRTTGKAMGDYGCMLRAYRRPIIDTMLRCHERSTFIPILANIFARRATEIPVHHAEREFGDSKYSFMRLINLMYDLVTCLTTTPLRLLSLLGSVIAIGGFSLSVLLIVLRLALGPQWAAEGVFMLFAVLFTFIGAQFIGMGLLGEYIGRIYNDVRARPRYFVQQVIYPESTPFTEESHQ

B1: ArnC from Salmonella enterica (ArnCSe) (enzyme)
chain: T1 sequence (O52324 1-327)

Assays:
[1] = target: T1, ArnC; experiment: MST; assay type: binding
[2] = target: the molecule itself; experiment: cryo-EM structure

Molecule | Kd [1] | stoichiometry N [2]
O=c1ccn([C@@H]2O[C@H](COP(=O)(O)OP(=O)(O)O)[C@@H](O)[C@H]2O)c(=O)[nH]1 [UDP] | 8.5 µM | –
B1 | – | 4
